This note sets out measurements from patent US20080280810A1, “PEPTIDES HAVING AFFINITY FOR BODY SURFACES” (priority 2006, published 2008).

Assay [1] can be described thus: Co-application of multi-block peptide with semi-permanent dye (Arianor Ebony), color retention. Particulars: difference in Delta E between peptide sample and peptide free control after 3 embrocation cycles (about 12 manual shampoos); pH 8.5-9.0; >2 benefit, >4 substantial benefit. Also on record: species or system human; key: ΔE of peptide sample minus peptide-free control; larger = better retention. As for the experimental part:
(§1) A 0.5% aqueous solution of Arianor Ebony (Sensient Technologies Corp, Milwaukee, Wis.) containing 3% benzyl alcohol and 0.05% diazolidinyl urea (biocide) was prepared. Dye insolubles were removed by filtration and the pH of the dye solution was adjusted to 8.50-9.0, using ethanolamine.
(§2) Approximately 1 mL of the dye solution was added to selected wells of a 24-well plate (Thomson Instrument Co., Oceanside, Calif.; part # 931565). A multi-block peptide (see Table 12) was dissolved in a solution consisting of 3 wt % benzyl alcohol and 95 wt % water to yield a peptide concentration of 2 wt % or approximately 20 mg/mL. The pH was adjusted to 8.5-9.0 using ethanolamine. The peptide solution was then pipetted into test wells containing dye solution in the amount of 1 mL or 0.2 mL respectively. The total volume in each test well was then adjusted to 2 mL where necessary using 3% aqueous benzyl alcohol (pH adjusted to 8.5-9.0 with ethanolamine). Peptide free controls consisted of 1 mL of dye solution diluted to 2 mL with the pH adjusted aqueous benzyl alcohol solution.
(§3) Baseline […] readings were made on one inch long tresses (see below) using an X-RITE® SP78™ Sphere Spectrophotometer (X-Rite, Inc., Grandville, Mich.), by placing the hair tress into the photosensor and calculating L*, a* and b* parameters representing the photometer response. All measurements were the average of three individual determinations.
(§4) The tresses (potted on one end with resin) of natural white, 85% gray or regular bleached hair (International Hair Importers and Products, Bellerose, N.Y.) were immersed in the peptide/dye solution and the entire well plate was agitated on a VORTEX-GENIE® 2 Mixer (Scientific Industries, Bohemia, N.Y.) at a speed setting of 1 for 30 minutes. The tresses were removed from the wells, rinsed for 30 seconds under flowing deionized water and then air dried.
(§5) The following complement of beads was then added to each well containing a hair tress: (8 beads in all; 4 Novagen Coli Rollers Plating Beads—sterilized (EMD Biosciences, San Diego, Calif.; Catalog No. 71013), 2 BioSpec 6.35 mm glass beads (BioSpec Products, Bartlesville, Okla.; Catalog No. 11079635), and 2 BioSpec 3.2 mm Stainless Steel Bead (Catalog No. 11079132ss).
(§6) Then 2.5 mL of aqueous 50% Pantene Pro V® shampoo (Proctor & Gamble Co., Cincinnati, Ohio) was pipetted into each well. The plate was placed on a VWR® VX-2500 Multi-tube Vortexer (VWR, West Chester, Pa.) for 5 minutes to simulate shampooing with embrocation. The hair tresses were then rinsed under flowing deionized water and air dried. This cycle was repeated two more times except that the length of time was 10 minutes for both subsequent embrocation cycles. (This treatment was previously determined to simulate approximately 12 manual shampoo cycles.) At the conclusion of the third embrocation cycle L*, a* and b* values were measured and Delta E values (ΔE) were calculated using equation 1 below:
(§7) where L*=the lightness variable and a* and b* are the chromaticity coordinates of CIELAB colorspace as defined by the International Commission of Illumination (CIE) (Minolta, Precise Color Communication—Color Control From Feeling to Instrumentation, Minolta Camera Co., 1996).
(§8) The Delta E value (ΔE) indicates color retention relative to the non-dyed hair and larger Delta E values indicate better performance. Values listed in the table represent the difference in Delta E values between the peptide-containing sample and the peptide free control. This difference is indicative of color retention after shampoo or water rinse treatments and positive values indicate better performance relative to the peptide free controls (Table 12).

Assay in assay [2]: as above
The arrangement: species or system human. Particulars: difference in Delta E between peptide sample and peptide free control after 3 embrocation cycles (about 12 manual shampoos); pH 8.5-9.0; >2 benefit, >4 substantial benefit. As to the method:
as §1, §2, §3, §4, §5, §6, §7, §8

The nature of assay [3]: Phage ELISA on pellicle coated HAP disks. In kind it is binding, human. The settings on record: over 10^10 pfu purified phage, anti-M13 HRP conjugate, TMB, no phage control 0.218. As to the method: A total of 20 selected phage candidates (Example 29) were used in a phage ELISA experiment. Purified phage lysates were used for binding to pellicle HAP disks using an anti-M13 phage antibody conjugated to horseradish-peroxidase, followed by the addition of chromogenic agent TMB, obtained from Pierce Biotechnology (Rockford, Ill.). The plates were read at A450 nm.
For each phage candidate to be tested, the pellicle coated HAP disks (3 mm diameter) was incubated for 1 h at room temperature with 200 μL of blocking buffer, consisting of 2% non-fat dry milk (Schleicher & Schuell, Inc.) in TBS. The blocking buffer was removed by aspirating the liquid out of each tube. The tube was rinsed 6 times with wash buffer consisting of TBST-0.05%. The wells were filled with 200 μL of TBST-0.5% containing 1 mg/mL BSA (bovine serum albumin) and then 10 μL (over 10^10 pfu) of purified phage stock was added. The samples were incubated at room temperature for 60 min with slow shaking. The non-binding phage were removed by washing 6 times with TBST-0.5%. Then, 100 μL of horseradish peroxidase/anti-M13 antibody conjugate (Amersham USA, Piscataway, N.J.), diluted 1:500 in the blocking buffer, was added and incubated for 1 h at room temperature. The conjugate solution was removed and was washed 6 times with TBST-0.5%. TMB (3,3′,5,5′-tetramethylbenzidine) substrate (200 μL), obtained from Pierce Biotechnology (Rockford, Ill.) was added to each well and the color was allowed to develop for 5 to 30 min, typically for 10 min, at room temperature. Then, stop solution (200 μL of 2 M H2SO4) was added to each well and the solution was transferred to a 96-well plate and the A450 was measured using a microplate spectrophotometer (Molecular Devices, Sunnyvale, Calif.).

Assay [4] is described as follows: HPLC analysis of peptide uptake by hair. The settings on record: 20 mM Tris pH 7.2, 0.15 M NaCl, room temperature, no dye; peptide 0.1 mg/mL (IB5A, A5) or 0.05 mg/mL (HC 71, HC 74). In kind it is binding, human. As to the method:
The purpose of this Example was to compare the speed of uptake by measuring the amount of various peptides including peptides of the invention bound to hair at different time points using a high performance liquid chromatography (HPLC) method. The peptides, HC 71, HC 74, IB5 (the hair-binding peptide sequence in HC 71), and A5 (the hair-binding peptide sequence in HC 74), were dissolved in 10 mL of 20 mM Tris, pH 7.2 buffer containing 0.15 M NaCl to give the peptide concentrations shown in Table 11. Natural white hair, 0.54 g, (International Hair Importers & Products Inc., Bellerose, N.Y.) was pre-equilibrated with 10 mL of Tris buffer for 30 min with mixing at room temperature. Then, the buffer was drained from the hair and 10 mL of one of the peptide solutions was added. The hair was incubated with the peptide solution at room temperature without mixing and samples were taken at 0, 30 and 60 min for HPLC analysis. For peptide uptake measurements in the presence of Acid Red 33 dye, the peptide solution was mixed 1:1 with an aqueous solution of the dye (0.5 wt %). Natural white hair (0.65 g) pre-wet with deionized water, was added to the peptide solutions and the solutions were incubated at room temperature without mixing. Samples were taken at time 0, 30, and 60 min for analysis by HPLC. The samples were analyzed using HPLC to determine the concentration of the peptide remaining in solution, and by difference, the amount of peptide taken up by the hair. The HPLC analysis was done using an Agilent liquid chromatograph (Agilent Technologies Inc., Wilmington, Del.) with a 5 μm Zorbax Eclipse XDB-C18 column (Agilent Technologies Inc.). The sample was diluted with distilled water containing 0.1% trifluoroacetic acid (typically a 10-fold dilution), and 5 to 50 μL was injected using a 100 μL injection loop. A solvent gradient elution was used with two solvents: Solvent A, consisting of acetonitrile with 0.1% aqueous trifluoracetic acid, and Solvent B, consisting of water with 0.1% trifluoroacetic acid. The gradient was from 10% acetonitrile to 80% acetonitrile at a rate of 1%/min over a period of 70 min. The flow rate was 1.25 mL/min. Detection was done with a photodiode array detector at 218 nm, 230 nm, and 278 nm.

As to “A5-EGEGER (EQISGSLVAAPWEGEGER; Peptide having affinity for hair) [Peptide A5-EGEGER]”, in assay [1], the “ΔE Retention Ebony Dye Regular Bleached Hair” value is recorded as −1.0 and the “ΔE Retention Ebony dye with Natural White Hair” value stood at 5.7. For the same substance, the “ΔE Retention Ebony Dye with 85% Gray Hair” value in assay [2] is recorded as 3.7.
Taken in the same sequence, the figures for “A5-KRKRKD (EQISGSLVAAPWKRKRKD; Peptide having affinity for hair) [Peptide A5-KRKRKD]” were 1.09, 5.8 and −0.59.
As to AHPESLGIKYALDGNSDPHA [Pell 1], the “O.D. at 450 nm” value in assay [3] is 0.739.
Turning to ASVSNYPPIHHLATSNTTVN [Pell 2], in assay [3], the “O.D. at 450 nm” value was found to be 0.75.
On to DECMEPLNAAHCWR [Pell 3], for which, in assay [3], the “O.D. at 450 nm” value is 0.49.
Consider DECMHGSDVEFCTS [Pell 4], for which, in assay [3], the “O.D. at 450 nm” value worked out at 0.664.
For the substance DLCSMQMMNTGCHY [Pell 5], the “O.D. at 450 nm” value in assay [3] stood at 0.83.
As for DLCSSPSTWGSCIR [Pell 6], the “O.D. at 450 nm” value in assay [3] came out at 0.735.
For the substance DPNESNYENATTVSQPTRHL [Pell 7], the “O.D. at 450 nm” value in assay [3] was found to be 0.831.
As to EPTHPTMRAQMHQSLRSSSP [Pell 8], the “O.D. at 450 nm” value in assay [3] is given as 0.712.
Take “EQISGSLVAAPW (Hair-Binding Peptide) [Peptide A5, reference compound]”: in assay [4], the “% Uptake time = 0 min” value came to 0%, the “% Uptake time = 30 min” value is 2% and the “% Uptake time = 60 min” value worked out at 4%.
For “F4-KRKRKD (LDTSFHQVPFHQKRKRKD; Peptide having affinity for hair) [Peptide F4-KRKRKD]”, in assay [1], the “ΔE Retention Ebony Dye Regular Bleached Hair” value is given as −2.66 and the “ΔE Retention Ebony dye with Natural White Hair” value was found to be 0.12. Also, the “ΔE Retention Ebony Dye with 85% Gray Hair” value in assay [2] came out at 2.87.
With GNTDTTPPNAVMEPTVQHKW [Pell 9], the “O.D. at 450 nm” value in assay [3] was 0.755.
On to “IB5-KRKRKD (TPPELLHGDPRSKRKRKD; Peptide having affinity for hair)”, for which, in assay [1], the “ΔE Retention Ebony Dye Regular Bleached Hair” value is on record as −0.44 and the “ΔE Retention Ebony dye with Natural White Hair” value turned out to be 4.49. Further, the “ΔE Retention Ebony Dye with 85% Gray Hair” value in assay [2] was 1.2.
Taken in the same sequence, the figures for “KF11-EGEGED (NTSQLSTEGEGED; Peptide having affinity for hair)” were −4.05, 3.6 and 0.94.
As for “LDTSFHQVPFHQ (Peptide having affinity for hair) [Peptide F4, reference compound]”, in assay [1], the “ΔE Retention Ebony Dye Regular Bleached Hair” value worked out at 0.95 and the “ΔE Retention Ebony dye with Natural White Hair” value is 5.17. The “ΔE Retention Ebony Dye with 85% Gray Hair” value in assay [2] was 3.24.
In the case of NGPDMVQSVGKHKNS [Pell 10], the “O.D. at 450 nm” value in assay [3] is reported as 0.729.
On the same count and under the same terms, the figure for NGPEVRQIPANFEKL [Pell 11] is 0.607; for NNTSADNPPETDSKHHLSMS [Pell 12] it is 0.521.
NNTWPEGAGHTMPSTNIRQA [Pell 13]: the “O.D. at 450 nm” value in assay [3] is given as 0.598.
Same read-out and setting: the value for NPTATPHMKDPMHSNAHSSA [Pell 14] was 0.7.
Still for that read-out and setting: the figure for NPTDHIPANSTNSRVSKGNT [Pell 15] is 0.567; for NPTDSTHMMHARNHE [Pell 16] it is 0.578.
On to “P-KRGRHKRPKRHK-GGG-IB5A-C (PKRGRHKRPKRHKGGGTPPELLHGAPRSC; Peptide having affinity for hair) [HC100]”, for which, in assay [1], the “ΔE Retention Ebony Dye Regular Bleached Hair” value is on record as −0.27 and the “ΔE Retention Ebony dye with Natural White Hair” value is −4.5. For the same substance, the “ΔE Retention Ebony Dye with 85% Gray Hair” value in assay [2] is reported as 4.1.
For the substance TPCAPASFNPHCSR [Pell 18], the “O.D. at 450 nm” value in assay [3] was 0.416.
As to TPCATYPHFSGCRA [Pell 19], the “O.D. at 450 nm” value in assay [3] amounted to 0.731.
For “TPPELLHGAPRS (Hair-binding peptide) [IB5A, reference compound]”, in assay [4], the “% Uptake time = 0 min” value was found to be 0% and the “% Uptake time = 30 min” value was found to be 8%.
As for WCTDFCTRSTPTSTSRSTTS [Pell 20], the “O.D. at 450 nm” value in assay [3] turned out to be 0.715.
